Experimental data from paper PMC7689096, “Cyclizing Painkillers: Development of Backbone-Cyclic TAPS Analogs” (Frontiers in Chemistry, 2020).

Tests used:
[1] = target: T1, δ (DOP, OPRD2) opioid receptor (Mus musculus, UniProt P32300); experiment: DOP opioid receptor functional antagonism in NG-10815 cells; assay type: cell-based, rat; settings: Between 10^−9-10^−6 M, percent inhibition of control specific agonist response
T1 construct: NG-10815 cells which express significant endogenous levels of δ opioid receptors; host or cells: NG-10815 (NG108-15) mouse N18TG2 neuroblastoma x rat C6-BU-1 glioma hybrid cells
Description: Peptides were tested for μ (MOP, OPRM1) and δ (DOP, OPRD2) opioid receptor activation functional agonism and antagonism using CHO cells expressing human recombinant μ receptors and NG-10815 cells which express significant endogenous levels of δ opioid receptors. The cultures were incubated for 10 min at 37°C followed by impedance measurements of CHO cells and cAMP was assayed by the HTRF method using NG-10815 cells, according to CEREP standard assay protocols. The respective reference, non-peptide small molecules were tested concurrently with the TAPS analogs. The agonist compounds were: DPDPE (selective agonist of DOP receptor) and DAMGO (high MOP receptor specificity) and the antagonist compounds were: Naltrindole (selective DOP receptor antagonist) and CTOP (MOP receptor antagonist). […] The results are expressed as a percentage of respective control-specific response. […] These findings indicate that TAPS cyclic peptides are MOP selective full agonists. […] The cyclic TAPS peptide had lower activity than the linear parent TAPS peptide (90 ± 5%) – a finding that can be attributed to their restricted conformation relative to the flexible linear peptide conformation.
The respective reference, non-peptide small molecules were tested concurrently with the TAPS analogs; Agonist compounds DPDPE ([D-Pen2,D-Pen5]enkephalin), selective agonist of DOP receptor at 2 × 10^−9 M and DAMGO ([D-Ala2, N-MePhe4, Gly-ol] enkephalin), high MOP specificity at 2.5 × 10^−9 M; Antagonist compounds: naltrindole 7-(cyclopropylmethyl)-6,7-dehydro-4,5α-epoxy-3,14-dihydroxy-6,7-2′,3′-indolomorphinan hydrochloride, selective DOP antagonist, 5 × 10^−10 M and CTOP (D-Phe-Cys-Tyr-D-Trp-Orn-Thr-Pen-Thr-NH2), MOP antagonist at 3.4 × 10^−7 M. Depending on the assay volume and solvent tolerance, the stock solutions were diluted to [100×], [333×] or [1,000×] in 100% DMEM solvent, then either added directly or further diluted to [10×] or [5×] in H2O or Hank's balanced salt solution (HBSS) before addition to the assay well (final solvent concentration kept constant). The cultures were incubated for 10 min at 37°C followed by impedance measurements using cellular dielectric spectroscopy of CHO cells and cAMP was assayed by homogeneous time resolved fluorescence (HTRF) method using NG-10815 cells, according to CEREP standard assay protocols (https://euroscreenfast.com/assays/opioid-orl1-camp-fast-0360c; https://euroscreenfast.com/assays/opioid-op1-delta-camp-fast-0379c). The results (mean of three experiments) are expressed as a percent of control specific agonist response [(measured TAPS specific response/control specific agonist response) × 100] and as a percent inhibition of control specific agonist response [100 – (measured TAPS specific response/control specific agonist response) × 100] obtained in the presence of the TAPS compounds. Results showing a stimulation or an inhibition lower than 25% were considered not significant and mostly attributable to variability of the signal around the control level. Results showing a stimulation or an inhibition higher than 50% were considered to represent significant effects of the TAPS compounds.

mice = experiment: Mouse open field test (locomotor adverse effect)
Description: In the mouse open field test (OF test), the distance and speed the animal moves over a 5-min time period is recorded, giving an indication as to whether a medication administered affected its locomotor activity. TAPS c(2-6) (5 or 15 mg/kg) was administered via IP administration and compared to morphine (5 mg/kg) and vehicle (PBS).
Male ICR mice (Harlan, Israel) 7 weeks of age (25–27) were used for all pharmacodynamic experiments after 5-day acclimation to laboratory conditions. Animals were allowed free access to food (standard commercial, sterile rodent diet) and water throughout the experiments and kept in automatically controlled environmental conditions for temperature and humidity levels in a 12-h dark-light cycle.
Animals were placed in the OF apparatus for a period of 5 min. The apparatus utilizes computerized monitoring which measures the speed and distance the animal walks during the measurement period. […] Baseline measurements were taken 1 day before initiation of the experiments and again at 0.5, 1.5, 3, and 5 h post injection.

T1 sequence (P32300 whole entry): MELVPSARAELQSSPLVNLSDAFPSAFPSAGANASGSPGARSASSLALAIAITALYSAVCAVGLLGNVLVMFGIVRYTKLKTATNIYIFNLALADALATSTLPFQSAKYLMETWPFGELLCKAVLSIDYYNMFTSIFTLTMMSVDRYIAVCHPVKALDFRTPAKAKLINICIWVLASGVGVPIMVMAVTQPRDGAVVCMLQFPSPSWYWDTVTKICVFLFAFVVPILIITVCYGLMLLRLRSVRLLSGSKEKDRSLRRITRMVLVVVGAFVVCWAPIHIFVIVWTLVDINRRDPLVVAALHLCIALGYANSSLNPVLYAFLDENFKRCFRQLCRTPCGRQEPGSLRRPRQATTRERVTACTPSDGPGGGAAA

SMILES: N=C(N)NCCC[C@@H]1C(=O)N[C@@H](Cc2ccccc2)C(=O)N(CC(N)=O)CCNC(=O)NCCCCCCN1C(=O)[C@@H](N)Cc1ccc(O)cc1 [TAPS c(2-6)]
- DOP antagonist (%) [1]: 6%
- locomotor effect (distance and speed of movement over 5 min) (mice; 5 mg/kg IP): no locomotor effect
- locomotor effect (distance and speed of movement over 5 min) (mice; 15 mg/kg IP): no locomotor effect
